Like-named read-outs stand apart in the source and are kept apart here.
Experiment: Clinical study, steady state PK (Cycle 1 Day 15) after daily oral tablets of example 1
Assay type: in vivo, human
Conditions: for AUC(0-t) / Cmax / Tmax / half-life / AUC: human, in vivo; for Tmax: median (minimum-maximum); for half-life: read-out: T½ (converted)
Procedure: Non-small cell lung cancer patients with EGFR T790M mutation were enrolled in a clinical study and received escalating doses of EGF816 ranging from 100 mg to 225 mg daily oral doses by using the tablets as described in example 1.

[1] = 150 mg qd (N = 6), geometric mean (CV %)
[2] = 200 mg qd (N = 7), geometric mean (CV %)
[3] = 225 mg qd (N = 7), geometric mean (CV %)
[4] = 100 mg qd (N = 3), geometric mean (CV %)

Cc1cc(C(=O)Nc2nc3cccc(Cl)c3n2[C@@H]2CCCCN(C(=O)/C=C/CN(C)C)C2)ccn1 [EGF816, (R,E)-N-(7-chloro-1-(1-(4-(dimethylamino)but-2-enoyl)azepan-3-yl)-1H-benzo[d]imidazol-2-yl)-2-methylisonicotinamide]
CLss/F [1]: 238 (38) mL/min
CLss/F [2]: 247 (58) mL/min
CLss/F [3]: 222 (37) mL/min
AUC(0-t) [4]: 9.05 µg·h/mL
Cmax [4]: 0.519 µg/mL
Tmax (100 mg qd (N = 3)): 6 h
half-life (100 mg qd (N = 3), only one value calculated): 14 h
AUC [1]: 10.5 µg·h/mL
AUC(0-t) [1]: 10.3 µg·h/mL
Cmax [1]: 0.675 µg/mL
half-life [1]: 17 h
Tmax (150 mg qd (N = 6)): 5 h
AUC [2]: 13.5 µg·h/mL
AUC(0-t) [2]: 13.5 µg·h/mL
Cmax [2]: 0.939 µg/mL
half-life [2]: 13 h
Tmax (200 mg qd (N = 7)): 3 h
AUC [3]: 16.9 µg·h/mL
AUC(0-t) [3]: 12.1 µg·h/mL
Cmax [3]: 1.27 µg/mL
half-life [3]: 10 h
Tmax (225 mg qd (N = 7)): 3 h
